# The source made the active and inactive calls. The calls are words filed in the database; no cut-off is given here.
# Columns and labels:
# [1] = Half life in dog at 9 umol/kg, po or 3 umol/kg, iv; assay type: ADME, organism-based, Canis lupus familiaris; conditions: in vivo
# [2] = Clearance in dog at 9 umol/kg, po or 3 umol/kg, iv; assay type: ADME, organism-based, Canis lupus familiaris; conditions: in vivo
# [3] = target: C-C chemokine receptor type 2 (Homo sapiens) (UniProt P41597); assay: Antagonist activity at CCR2b (unknown origin) at 10 uM
# [4] = target: C-C chemokine receptor type 8 (Homo sapiens) (UniProt P51685); assay: Antagonist activity at CCR8 (unknown origin) at 10 uM; assay type: functional
# [5] = target: T1, C-X-C chemokine receptor type 2 (Homo sapiens) (UniProt P25025); assay: Antagonist activity at CXCR2 (unknown origin) at 10 uM; assay type: functional
# T1 sequence (whole entry): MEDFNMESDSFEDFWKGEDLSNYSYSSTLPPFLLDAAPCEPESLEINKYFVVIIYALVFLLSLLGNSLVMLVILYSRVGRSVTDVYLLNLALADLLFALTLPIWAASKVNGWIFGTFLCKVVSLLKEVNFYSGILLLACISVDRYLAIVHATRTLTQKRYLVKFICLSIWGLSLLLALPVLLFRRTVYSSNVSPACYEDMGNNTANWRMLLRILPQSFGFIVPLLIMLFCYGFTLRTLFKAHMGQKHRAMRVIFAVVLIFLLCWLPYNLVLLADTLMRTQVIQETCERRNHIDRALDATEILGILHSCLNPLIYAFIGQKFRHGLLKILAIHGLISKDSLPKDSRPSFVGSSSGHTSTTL
# [6] = target: T2, C-C chemokine receptor type 4 (Mus musculus, UniProt P51680); assay: Antagonist activity at mouse CCR4; assay type: functional
# T2 sequence (P51680 whole entry): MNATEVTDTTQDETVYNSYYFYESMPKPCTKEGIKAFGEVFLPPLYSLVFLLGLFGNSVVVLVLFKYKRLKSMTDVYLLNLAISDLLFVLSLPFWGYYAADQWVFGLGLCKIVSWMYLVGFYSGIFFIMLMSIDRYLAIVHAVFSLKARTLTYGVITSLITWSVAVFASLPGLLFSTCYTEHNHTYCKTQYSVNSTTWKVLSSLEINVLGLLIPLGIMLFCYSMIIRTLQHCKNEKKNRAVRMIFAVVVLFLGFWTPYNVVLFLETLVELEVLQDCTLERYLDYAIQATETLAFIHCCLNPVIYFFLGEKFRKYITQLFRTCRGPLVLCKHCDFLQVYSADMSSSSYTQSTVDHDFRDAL
# [7] = target: T3, C-X-C chemokine receptor type 1 (Homo sapiens) (UniProt P25024); assay: Antagonist activity at CXCR1 (unknown origin) at 10 uM; assay type: functional
# T3 sequence (whole entry): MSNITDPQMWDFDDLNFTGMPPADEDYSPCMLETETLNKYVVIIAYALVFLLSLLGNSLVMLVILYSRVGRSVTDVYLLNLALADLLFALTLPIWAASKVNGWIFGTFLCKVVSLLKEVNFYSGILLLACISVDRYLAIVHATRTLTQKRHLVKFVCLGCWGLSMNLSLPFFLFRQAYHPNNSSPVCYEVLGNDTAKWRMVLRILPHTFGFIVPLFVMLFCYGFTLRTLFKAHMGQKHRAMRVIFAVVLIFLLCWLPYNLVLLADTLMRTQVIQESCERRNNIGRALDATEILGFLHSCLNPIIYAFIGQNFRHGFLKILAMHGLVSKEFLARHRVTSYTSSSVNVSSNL
# [8] = target: T4, C-C chemokine receptor type 7 (Homo sapiens) (UniProt P32248); assay: Antagonist activity at CCR7 (unknown origin) at 10 uM; assay type: functional
# T4 sequence (whole entry): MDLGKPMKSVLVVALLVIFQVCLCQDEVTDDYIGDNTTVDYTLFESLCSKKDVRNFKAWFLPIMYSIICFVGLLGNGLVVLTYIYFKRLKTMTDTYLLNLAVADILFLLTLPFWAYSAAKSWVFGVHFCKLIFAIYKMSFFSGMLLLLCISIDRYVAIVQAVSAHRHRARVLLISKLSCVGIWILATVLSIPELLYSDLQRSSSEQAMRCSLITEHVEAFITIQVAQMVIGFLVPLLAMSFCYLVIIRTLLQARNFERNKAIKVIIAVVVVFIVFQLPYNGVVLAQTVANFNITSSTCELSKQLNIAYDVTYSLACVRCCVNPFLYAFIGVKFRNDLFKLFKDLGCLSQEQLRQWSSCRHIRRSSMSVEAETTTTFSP
# [9] = Lipophilicity, log P of the compound; assay type: physicochemical; conditions: octanol/water
# Rattus norvegicus = assay: Antiinflammatory activity in OVA-induced Brown Norway rat lung assessed as reduction in alveolitis administered po bid 1 hr prior to antigen challenge and every 12 hrs prior to termination 96 hrs post challenge by histopathological analysis; assay type: functional, organism-based
# [10] = Terminal trough concentration in OVA-induced Brown Norway rat plasma at 7.5 umol/kg, po bid measured 12 hrs post last dose; assay type: ADME, organism-based; conditions: read-out: Cmin
# [11] = Half life in rat at 9 umol/kg, po or 3 umol/kg, iv; assay type: ADME, organism-based; conditions: in vivo
# [12] = Ratio of free plasma concentration in Brown Norway rat at 15 umol/kg to pIC50 for recombinant human CCR4 expressed in CHO-K1 cells; assay type: ADME, cell-based; conditions: in vivo
# [13] = target: T5, C-C chemokine receptor type 1 (Homo sapiens) (UniProt P32246); assay: Antagonist activity at CCR1 (unknown origin) at 10 uM; assay type: functional
# T5 sequence (whole entry): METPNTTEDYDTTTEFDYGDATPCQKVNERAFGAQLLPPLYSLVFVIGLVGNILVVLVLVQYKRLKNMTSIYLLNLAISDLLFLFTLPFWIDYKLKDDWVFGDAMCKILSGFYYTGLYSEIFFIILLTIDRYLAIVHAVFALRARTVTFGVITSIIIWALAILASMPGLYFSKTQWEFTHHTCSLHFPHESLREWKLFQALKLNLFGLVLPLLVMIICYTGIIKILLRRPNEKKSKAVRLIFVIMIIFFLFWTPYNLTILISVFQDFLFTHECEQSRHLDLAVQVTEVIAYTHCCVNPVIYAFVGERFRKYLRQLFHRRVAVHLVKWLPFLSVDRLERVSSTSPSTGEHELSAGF
# [14] = target: T6, C-C chemokine receptor type 4 (Homo sapiens) (UniProt P51679); assay: Agonist activity at CCR4 (unknown origin) up to 10 uM; assay type: functional
# T6 sequence (whole entry): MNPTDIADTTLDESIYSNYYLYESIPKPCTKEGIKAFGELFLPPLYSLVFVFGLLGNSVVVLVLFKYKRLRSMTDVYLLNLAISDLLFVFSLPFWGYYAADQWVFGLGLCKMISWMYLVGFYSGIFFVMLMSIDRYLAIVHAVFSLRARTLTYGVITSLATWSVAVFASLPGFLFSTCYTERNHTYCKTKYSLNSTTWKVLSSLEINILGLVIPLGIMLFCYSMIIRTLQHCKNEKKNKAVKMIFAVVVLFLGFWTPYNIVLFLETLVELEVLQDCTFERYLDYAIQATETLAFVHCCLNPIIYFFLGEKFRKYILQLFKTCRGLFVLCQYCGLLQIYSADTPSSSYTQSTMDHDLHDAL
# [15] = Solubility of the compound; assay type: physicochemical
# [16] = Terminal trough concentration in OVA-induced Brown Norway rat plasma at 15 umol/kg, po bid measured 12 hrs post last dose; assay type: ADME, organism-based; conditions: read-out: Cmin
# Hepatocyte = assay: Stability in human hepatocytes assessed per million cells
# C-C chemokine receptor type 2 (Homo sapiens), sequence (P41597 whole entry, looked up): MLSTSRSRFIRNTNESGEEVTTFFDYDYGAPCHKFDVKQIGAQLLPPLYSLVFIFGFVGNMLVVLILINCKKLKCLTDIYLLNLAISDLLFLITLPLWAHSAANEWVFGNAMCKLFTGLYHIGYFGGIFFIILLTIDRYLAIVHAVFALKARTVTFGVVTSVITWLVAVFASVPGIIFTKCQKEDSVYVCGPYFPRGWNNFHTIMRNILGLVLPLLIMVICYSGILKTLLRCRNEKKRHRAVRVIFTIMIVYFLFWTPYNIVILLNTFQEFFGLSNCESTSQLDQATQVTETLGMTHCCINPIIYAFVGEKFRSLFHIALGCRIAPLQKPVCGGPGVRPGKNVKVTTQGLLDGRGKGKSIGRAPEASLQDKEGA
# C-C chemokine receptor type 8 (Homo sapiens), sequence (P51685 whole entry): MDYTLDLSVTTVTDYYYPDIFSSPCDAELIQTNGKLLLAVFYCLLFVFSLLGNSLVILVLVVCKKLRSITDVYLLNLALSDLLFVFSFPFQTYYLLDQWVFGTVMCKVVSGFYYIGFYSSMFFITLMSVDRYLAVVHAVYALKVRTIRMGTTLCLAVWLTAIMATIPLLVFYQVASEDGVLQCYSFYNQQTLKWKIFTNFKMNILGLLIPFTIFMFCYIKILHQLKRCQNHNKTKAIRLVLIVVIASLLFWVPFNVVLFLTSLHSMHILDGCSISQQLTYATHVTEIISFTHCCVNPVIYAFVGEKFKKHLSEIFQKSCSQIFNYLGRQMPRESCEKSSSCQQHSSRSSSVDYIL
smiles,measurement,setting,value
COc1nccnc1NS(=O)(=O)c1cccc(Cl)c1Cl,half-life,[1],1 h
same,clearance,[2],1.5 mL/min/kg
same,Activity,[3],inactive
same,Activity,[4],inactive
same,Activity,[5],inactive
same,IC50,[6],10 nM
same,Activity,[7],inactive
same,Activity,[8],inactive
same,logP,[9],2.5
same,Activity,Rattus norvegicus,Dose-dependent effect
same,concentration at 12 h,[10],140 nM
same,half-life,[11],1.7 h
same,Ratio,[12],9
same,Activity,[13],inactive
same,Activity,[14],inactive
same,solubility,[15],1500 µg/mL
same,concentration at 12 h,[16],490 nM
same,Stability,Hepatocyte,< 0.2 uL/ml

# — ChEMBL document CHEMBL4130457, “Discovery of AZD-2098 and AZD-1678, Two Potent and Bioavailable CCR4 Receptor Antagonists” (ACS Med Chem Lett, 2017)
